Laboratory results reported in US12240862B2, “Inhibitors of peptidylarginine deiminases” (Gilead Sciences, Inc., priority 2020, dated 2025).
pIC50: −log10 of the molar value.

molecular target: T1, human PAD4 (Homo sapiens, UniProt Q9UM07); assay: In vitro PAD4 BAEE biochemical assay; conditions: human PAD4, BAEE substrate; 5 nM PAD4, 2 mM calcium chloride, 3 mM BAEE; geometric mean of multiple experiments
T1 construct: human PAD4 (NM_012387), A2P663, was PCR amplified; His-SUMO (N, cleaved yes); made in house; host or cells: E. coli BL21(DE3)
T1 sequence (Q9UM07 2-663): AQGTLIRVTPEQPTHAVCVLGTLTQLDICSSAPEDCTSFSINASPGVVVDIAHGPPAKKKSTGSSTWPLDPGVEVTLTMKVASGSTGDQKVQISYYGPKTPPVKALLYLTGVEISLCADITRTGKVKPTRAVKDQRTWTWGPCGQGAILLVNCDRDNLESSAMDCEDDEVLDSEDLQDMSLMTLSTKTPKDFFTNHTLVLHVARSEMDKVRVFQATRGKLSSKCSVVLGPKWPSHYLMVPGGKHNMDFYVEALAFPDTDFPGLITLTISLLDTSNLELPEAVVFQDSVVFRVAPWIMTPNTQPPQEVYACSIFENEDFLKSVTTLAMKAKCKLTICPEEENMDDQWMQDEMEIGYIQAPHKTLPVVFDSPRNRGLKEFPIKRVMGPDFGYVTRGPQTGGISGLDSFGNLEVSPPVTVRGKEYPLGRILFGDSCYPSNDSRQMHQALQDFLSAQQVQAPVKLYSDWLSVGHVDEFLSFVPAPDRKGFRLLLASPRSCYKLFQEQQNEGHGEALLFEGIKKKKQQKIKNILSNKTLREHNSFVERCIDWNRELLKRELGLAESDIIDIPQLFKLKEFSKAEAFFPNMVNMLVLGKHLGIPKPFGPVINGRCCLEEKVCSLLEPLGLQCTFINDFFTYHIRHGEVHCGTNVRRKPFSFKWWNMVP
Procedure, shortened: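 Ammonia release from BAEE deimination monitored by o-phthalaldehyde amine coupling (1 h, 25 °C) after EDTA stop. Final conditions: 5 nM tag-free recombinant human PAD4 (E. coli), 2 mM CaCl2, 3 mM BAEE, pH 7.6 MOPS with DTT; 30 min compound preincubation, then 2 h reaction at 25 °C.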

SMILES | pIC50
COc1cc(C(=O)N2[C@H]3CC[C@@H]2[C@H](N)C3)cc2nc(-c3cc4ccc([C@@H](C)NC(=O)C5C(F)(F)C56CC6)nc4n3CC3CC3)c(C)n12 (some centres unmarked) [Example 53, ~{N}-[(1~{R})-1-[2-[7-[(1~{R},2~{R}, 4~{S})-2-amino-7-azabicyclo[2.2.1]heptane-7-carbonyl]-5-methoxy-3-methylimidazo[1,2-a]pyridin-2-yl]-1-(cyclopropylmethyl)pyrrolo[2,3-b]pyridin-6-yl]ethyl]-2,2-difluorospiro[2.2] pentane-1-carboxamide] | 7.43
COc1cc(C(=O)N2[C@H]3CC[C@@H]2[C@H](N)C3)cc2nc(-c3cc4ccc([C@@H](C)NC(=O)[C@H]5C[C@@](C)(O)C5)nc4n3CC3CC3)c(C)n12 [Example 54, ~{N}-[(1~{R})-1-[2-[7-[(1~{R},2~{R}, 4~{S})-2-amino-7-azabicyclo[2.2.1]heptane-7-carbonyl]-5-methoxy-3-methylimidazo[1,2-a]pyridin-2-yl]-1-(cyclopropylmethyl)pyrrolo[2,3-b]pyridin-6-yl]ethyl]-3-hydroxy-3-methylcyclobutane-1-carboxamide] | 7.54
COc1cc(C(=O)N2[C@H]3CC[C@@H]2[C@H](N)C3)cc2nc(-c3cc4ccc([C@@H](C)NC(=O)C5CC6(CC6)C5)nc4n3CC3CC3)c(C)n12 [Example 55, ~{N}-[(1~{R})-1-[2-[7-[(1~{R},2~{R},4~{S})-2-amino-7-azabicyclo [2.2.1]heptane-7-carbonyl]-5-methoxy-3-methylimidazo [1,2-a]pyridin-2-yl]-1-(cyclopropylmethyl)pyrrolo[2,3-b]pyridin-6-yl]ethyl] spiro[2.3]hexane-5-carboxamide] | 7.28
COc1cc(C(=O)N2[C@H]3CC[C@@H]2[C@H](N)[C@H](O)C3)cc2nc(-c3cc4ccc([C@@H](C)NC(=O)C(C)(C)C)nc4n3CC3CC3)c(C)n12 [Example 60, ~{N}-[(1~{R})-1-[2-[7-[(1~{R},2~{S},3~{R}, 5~{S})-2-amino-3-hydroxy-8-azabicyclo[3.2.1]octane-8-carbonyl]-5-methoxy-3-methylimidazo [1,2-a]pyridin-2-yl]-1-(cyclopropylmethyl)pyrrolo[2,3-b]pyridin-6-yl]ethyl]-2,2-dimethylpropanamide] | 6.65
COc1cc(C(=O)N2[C@H]3CC[C@@H]2[C@H](N)C3)cc2nc(-c3cc4ccc([C@@H](C)NC(=O)C5CCC5(F)F)nc4n3CC3CC3)c(C)n12 (some centres unmarked) [Example 61, ~{N}-[(1~{R})-1-[2-[7-[(1~{R},2~{R},4~{S})-2-amino-7-azabicyclo [2.2.1]heptane-7-carbonyl]-5-methoxy-3-methylimidazo [1,2-a]pyridin-2-yl]-1-(cyclopropylmethyl)pyrrolo[2,3-b]pyridin-6-yl]ethyl]-2,2-difluorocyclobutane-1-carboxamide] | 7.42
COc1cc(C(=O)N2[C@H]3CC[C@@H]2[C@H](N)C3)cc2nc(-c3cc4ccc([C@@H](C)NC(=O)C56CCC(F)(CC5)CC6)nc4n3CC3CC3)c(C)n12 [Example 63, ~{N}-[(1~{R})-1-[2-[7-[(1~{R},2~{R}, 4~{S})-2-amino-7-azabicyclo[2.2.1]heptane-7-carbonyl]-5-methoxy-3-methylimidazo [1,2-a]pyridin-2-yl]-1-(cyclopropylmethyl)pyrrolo[2,3-b]pyridin-6-yl]ethyl]-4-fluorobicyclo[2.2.2] octane-1-carboxamide] | 7.07
C=CCC(=O)N[C@H](C)c1ccc2cc(-c3nc4cc(C(=O)N5[C@H]6CC[C@@H]5[C@H](N)C6)cc(OC)n4c3C)n(CC3CC3)c2n1 [Example 64, ~{N}-[(1~{R})-1-[2-[7-[(1~{R},2~{R},4~{S})-2-amino-7-azabicyclo[2.2.1]heptane-7-carbonyl]-5-methoxy-3-methylimidazo [1,2-a]pyridin-2-yl]-1-(cyclopropylmethyl)pyrrolo[2,3-b]pyridin-6-yl]ethyl]but-3-enamide] | 7.41
COc1cc(C(=O)N2[C@H]3CC[C@@H]2[C@H](N)C3)cc2nc(-c3cc4ccc([C@@H](C)NC(=O)C56CC(CO)(C5)C6)nc4n3CC3CC3)c(C)n12 [Example 65] | 7.47
COc1cc(C(=O)N2[C@H]3CC[C@@H]2[C@H](N)C3)cc2nc(-c3cc4ccc([C@@H](C)NC(=O)C5CCC(F)(F)CC5)nc4n3CC3CC3)c(C)n12 [Example 66, ~{N}-[(1~{R})-1-[2-[7-[(1~{R},2~{R},4~{S})-2-amino-7-azabicyclo [2.2.1]heptane-7-carbonyl]-5-methoxy-3-methylimidazo [1,2-a]pyridin-2-yl]-1-(cyclopropylmethyl)pyrrolo[2,3-b]pyridin-6-yl]ethyl]-4,4-difluorocyclohexane-1-carboxamide] | 7.16
COc1cc(C(=O)N2[C@H]3CC[C@@H]2[C@H](N)C3)cc2nc(-c3cc4ccc([C@@H](C)NC(=O)C5(C(F)(F)F)CCOCC5)nc4n3CC3CC3)c(C)n12 [Example 67, ~{N}-[(1~{R})-1-[2-[7-[(1~{R},2~{R},4~{S})-2-amino-7-azabicyclo [2.2.1]heptane-7-carbonyl]-5-methoxy-3-methylimidazo [1,2-a]pyridin-2-yl]-1-(cyclopropylmethyl)pyrrolo[2,3-b]pyridin-6-yl]ethyl]-4-(trifluoromethyl)oxane-4-carboxamide] | 6.91
COCC1(C(=O)N[C@H](C)c2ccc3cc(-c4nc5cc(C(=O)N6[C@H]7CC[C@@H]6[C@H](N)C7)cc(OC)n5c4C)n(CC4CC4)c3n2)CC1 [Example 68, ~{N}-[(1~{R})-1-[2-[7-[(1~{R},2~{R},4~{S})-2-amino-7-azabicyclo [2.2.1]heptane-7-carbonyl]-5-methoxy-3-methylimidazo [1,2-a]pyridin-2-yl]-1-(cyclopropylmethyl)pyrrolo[2,3-b]pyridin-6-yl]ethyl]-1-(methoxymethyl) cyclopropane-1-carboxamide] | 7.34
COc1cc(C(=O)N2[C@H]3CC[C@@H]2[C@H](N)C3)cc2nc(-c3cc4ccc([C@@H](C)NC(=O)C5CC56CC6)nc4n3CC3CC3)c(C)n12 (some centres unmarked) [Example 69, ~{N}-[(1~{R})-1-[2-[7-[(1~{R},2~{R},4~{S})-2-amino-7-azabicyclo [2.2.1]heptane-7-carbonyl]-5-methoxy-3-methylimidazo [1,2-a]pyridin-2-yl]-1-(cyclopropylmethyl)pyrrolo[2,3-b]pyridin-6-yl]ethyl]spiro[2.2] pentane-2-carboxamide] | 7.39

Continued, values first:

pIC50 | SMILES
7.51 | COc1cc(C(=O)N2[C@H]3CC[C@@H]2[C@H](N)C3)cc2nc(-c3cc4ccc([C@@H](C)NC(=O)c5ccnc(C(F)F)c5)nc4n3CC3CC3)c(C)n12 [Example 50, ~{N}-[(1~{R})-1-[2-[7-[(1~{R},2~{R},4~{S})-2-amino-7-azabicyclo[2.2.1]heptane-7-carbonyl]-5-methoxy-3-methylimidazo [1,2-a]pyridin-2-yl]-1-(cyclopropylmethyl)pyrrolo[2,3-b]pyridin-6-yl]ethyl]-2-(difluoromethyl)pyridine-4-carboxamide]
7.51 | COc1cc(C(=O)N2[C@H]3CC[C@@H]2[C@H](N)C3)cc2nc(-c3cc4ccc([C@@H](C)NC(=O)c5ccnc(Cl)c5)nc4n3CC3CC3)c(C)n12 [Example 51]
7.50 | COc1cc(C(=O)N2[C@H]3CC[C@@H]2[C@H](N)C3)cc2nc(-c3cc4ccc([C@@H](C)NC(=O)c5ccncc5F)nc4n3CC3CC3)c(C)n12 [Example 52]
6.60 | COc1cc(C(=O)N2[C@H]3CC[C@@H]2[C@H](N)C3)cc2nc(-c3cc4ccc([C@@H](C)NC(=O)c5ccc(F)cc5F)nc4n3CC3CC3)c(C)n12 [Example 56, ~{N}-[(1~{R})-1-[2-[7-[(1~{R},2~{R}, 4~{S})-2-amino-7-azabicyclo[2.2.1]heptane-7-carbonyl]-5-methoxy-3-methylimidazo[1,2-a]pyridin-2-yl]-1-(cyclopropylmethyl)pyrrolo[2,3-b]pyridin-6-yl]ethyl]-2,4-difluorobenzamide]
6.11 | COc1cc(C(=O)N2C[C@H]3CCCN[C@H]3C2)cc2nc(-c3cc4ccc([C@@H](C)NC(=O)c5ccccc5)nc4n3CC3CC3)c(C)n12 [Example 58, ~{N}-[(1~{R})-1-[2-[7-[(4~{a}~{R}, 7~{a}~{R})-1,2,3,4,4~{a},5,7,7~{a}-octahydropyrrolo[3,4-b]pyridine-6-carbonyl]-5-methoxy-3-methylimidazo[1,2-a]pyridin-2-yl]-1-(cyclopropylmethyl)pyrrolo[2,3-b]pyridin-6-yl]ethyl]benzamide]
6.71 | COc1cc(C(=O)N2CC[C@H]3CCN[C@H]3C2)cc2nc(-c3cc4ccc([C@@H](C)NC(=O)c5ccccc5)nc4n3CC3CC3)c(C)n12 [Example 59, ~{N}-[(1~{R})-1-[2-[7-[(3~{a}~{R}, 7~{a}~{R})-1,2,3,3~{a},4,5,7,7~{a}-octahydropyrrolo[2,3-c]pyridine-6-carbonyl]-5-methoxy-3-methylimidazo[1,2-a]pyridin-2-yl]-1-(cyclopropylmethyl)pyrrolo[2,3-b]pyridin-6-yl]ethyl]benzamide]
7.32 | COc1cc(C(=O)N2[C@H]3CC[C@@H]2[C@H](N)C3)cc2nc(-c3cc4ccc([C@@H](C)NC(=O)c5cc6n(c5)CCOC6)nc4n3CC3CC3)c(C)n12 [Example 62, ~{N}-[(1~{R})-1-[2-[7-[(1~{R},2~{R}, 4~{S})-2-amino-7-azabicyclo[2.2.1]heptane-7-carbonyl]-5-methoxy-3-methylimidazo [1,2-a]pyridin-2-yl]-1-(cyclopropylmethyl)pyrrolo[2,3-b]pyridin-6-yl]ethyl]-3,4-dihydro-1~{H}-pyrrolo [2,1-c][1,4]oxazine-7-carboxamide]
7.49 | COc1cc(C(=O)N2[C@H]3CC[C@@H]2[C@H](N)C3)cc2nc(-c3cc4ccc([C@@H](C)NC(=O)c5cncs5)nc4n3CC3CC3)c(C)n12 [Example 72, ~{N}-[(1~{R})-1-[2-[7-[(1~{R},2~{R},4~{S})-2-amino-7-azabicyclo[2.2.1]heptane-7-carbonyl]-5-methoxy-3-methylimidazo [1,2-a]pyridin-2-yl]-1-(cyclopropylmethyl)pyrrolo [2,3-b]pyridin-6-yl]ethyl]-1,3-thiazole-5-carboxamide]
